Experimental data as given in patent publication US20080293683A1, “Hormone Replacement Therapy” (University of Kansas Medical Center, priority 2007, published 2008).
Values joined by “and” are separate entries in the source; they are usually repeats but may differ in a detail not shown here. Equal entries are not always repeated. Where two headings read alike, the source gives them in different places.

What was measured:
[1] = target: T1, recombinant human ERβ (Homo sapiens, UniProt Q92731); experiment: ERβ binding assay: competition of [3H]E2 binding by competing estrogens; details: for RBAβ (%) (relative binding affinity for ERβ, of E2): calculated against E2 = 100; for binding affinity for ERβ (in words): concentrations up to 1000 nM
T1 construct: purchased PanVera Corporation (Madison, Wis.); host or cells: baculovirus-mediated expression system
From the text: (§1) The recombinant human ERα and ERβ proteins and bovine serum albumin (BSA) were obtained from PanVera Corporation (Madison, Wis.). According to the supplier, the recombinant human ERα and ERβ were produced in a baculovirus-mediated expression system, and they were soluble and functionally active, with post-translational modifications similar to those found in mammalian cells. See Reid et al., Human estrogen receptor-α: Regulation by synthesis, modification and degradation, Cell. Mol. Life.
(§2) The following buffer solutions were used in the ER binding assays, and they were prepared beforehand and stored at 4° C. The binding buffer consisted of 10% glycerol, 2 mM dithiothreitol, 1 mg/mL BSA and 10 mM Tris-HCl at pH 7.5. The ERα washing buffer contained 40 mM Tris-HCl and 100 mM KCl (pH 7.4), but the ERG washing buffer contained only 40 mM Tris-HCl (adjusted to pH 7.4). The 50% hydroxylapatite slurry was prepared first by vigorously mixing 10 g hydroxylapatite with 60 mL of the Tris-HCl solution (50 mM, pH 7.4). Hydroxylapatite was then allowed to settle for 20 minutes at room temperature, and the supernatant was decanted. The above procedures were repeated 10 times, and afterwards hydroxylapatite was kept in the 50 mM Tris-HCl solution overnight at 4° C. Hydroxylapatite slurry was then adjusted to an approximate final concentration of 50% (v/v) using the same Tris-HCl solution and stored at 4° C., and the slurry was stable for up to several months.
(§3) Note that all of the estrogens were initially dissolved in pure ethanol to a stock concentration of 1 mM, and then further diluted to 100 μM with 20% aqueous ethanol. […] Immediately before the addition of the ERα or ERβ protein, it was diluted in the binding buffer and mixed gently with repetitive pipettings. […] The incubation mixture was then mixed gently and thoroughly with repetitive pipettings. […] The binding mixture was incubated at room temperature for two hours. At the end of the incubation, 100 μL of the hydroxylapatite slurry was added to each tube and the tubes were incubated on ice for 15 minutes with 3 times of brief vortexing. An aliquot (1 mL) of the appropriate washing buffer was added, mixed, and centrifuged at 10,000 g for five minutes, and the supernatants were discarded. This wash step was repeated twice. Hydroxylapatite pellets were then resuspended in 200 μL ethanol (followed by another rinse with 200 μL ethanol), and then the content was transferred to scintillation vials (containing 4 mL of the scintillation fluid) for measurement of ^3H-radioactivity with a liquid scintillation counter (Packard Tri-CARB 2900 TR; Downers Grove, Ill.).
(§4) To calculate the specific binding (pmol/mL) of the human ERα or ERβ protein at each concentration point, the following equation was used: […]
(§5) When a lower radioligand concentration is used, the corresponding IC50 value will also be relatively lower, but when the radioligand concentration increases, the corresponding IC50 value will also increase. […] Since the RBA value is a parameter that is independent of the radioligand concentration used, we thus have placed more emphasis on the RBA values instead of the absolute IC50 values in interpreting the physiological meanings of the data from in vitro receptor competition assays.

[2] = target: T2, recombinant human ERα (Homo sapiens, UniProt P03372); experiment: ERα binding assay: competition of [3H]E2 binding by competing estrogens; details: for RBAα % (relative binding affinity for ERα, of E2): calculated against E2 = 100; for RBAα/RBAβ: ratio of relative binding affinities ERα over ERβ; for binding affinity for ERα (in words): concentrations up to 1000 nM; for RBAα/RBAβ determined by extrapolating the curves: extrapolated from curves of FIGS. 3-7, IC50 not reached
T2 construct: purchased PanVera Corporation (Madison, Wis.); host or cells: baculovirus-mediated expression system
T2 sequence (P03372 1-595): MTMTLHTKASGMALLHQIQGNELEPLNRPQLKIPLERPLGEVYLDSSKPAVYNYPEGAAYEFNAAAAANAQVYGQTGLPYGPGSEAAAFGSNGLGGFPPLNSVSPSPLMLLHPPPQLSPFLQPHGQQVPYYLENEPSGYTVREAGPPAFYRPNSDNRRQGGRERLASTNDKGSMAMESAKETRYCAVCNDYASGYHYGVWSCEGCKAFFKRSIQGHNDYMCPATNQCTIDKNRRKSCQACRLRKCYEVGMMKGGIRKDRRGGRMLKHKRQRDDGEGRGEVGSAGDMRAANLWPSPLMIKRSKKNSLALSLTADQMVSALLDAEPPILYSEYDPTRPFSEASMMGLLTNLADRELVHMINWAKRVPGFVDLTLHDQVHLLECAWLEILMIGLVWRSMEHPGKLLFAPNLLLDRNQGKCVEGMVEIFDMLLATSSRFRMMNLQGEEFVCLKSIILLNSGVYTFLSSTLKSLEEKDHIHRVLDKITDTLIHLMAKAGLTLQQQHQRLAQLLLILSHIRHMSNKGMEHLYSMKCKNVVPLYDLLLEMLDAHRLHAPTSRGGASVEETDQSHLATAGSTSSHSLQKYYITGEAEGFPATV
From the text: as §1, §2, §3, §4, §5

[3] = [3H]E2 10 nM, competitor up to 1000 nM, read-out: ERβ IC50
[4] = [3H]E2 10 nM, competitor up to 1000 nM, read-out: ERα IC50

T1 sequence (Q92731 whole entry): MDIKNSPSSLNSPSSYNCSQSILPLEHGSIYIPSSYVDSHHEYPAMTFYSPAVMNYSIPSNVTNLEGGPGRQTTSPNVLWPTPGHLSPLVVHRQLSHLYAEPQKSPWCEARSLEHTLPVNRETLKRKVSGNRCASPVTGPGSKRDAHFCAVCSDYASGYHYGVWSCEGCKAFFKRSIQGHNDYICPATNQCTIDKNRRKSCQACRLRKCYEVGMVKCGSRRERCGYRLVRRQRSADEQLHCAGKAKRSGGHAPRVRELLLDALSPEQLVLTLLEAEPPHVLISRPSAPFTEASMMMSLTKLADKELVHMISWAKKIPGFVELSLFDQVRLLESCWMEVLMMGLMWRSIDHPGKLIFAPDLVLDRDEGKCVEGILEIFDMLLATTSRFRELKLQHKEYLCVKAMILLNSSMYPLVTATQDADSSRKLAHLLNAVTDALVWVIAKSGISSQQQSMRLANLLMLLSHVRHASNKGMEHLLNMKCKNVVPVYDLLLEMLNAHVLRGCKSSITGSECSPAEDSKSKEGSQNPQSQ

Cc1cc(O)cc2c1[C@H]1CC[C@]3(C)[C@@H](O)CC[C@H]3[C@@H]1CC2 [1-Methyl-E2, 1-Methylestradiol]
RBAβ (%) (relative binding affinity for ERβ, of E2) [1]: 8% | IC50 ([1]; read-out: ERβ IC50): 112 nM | decrease of binding affinity for ERβ compared to E2 ([1]; relative to E2): approximately 90% | RBAα % (relative binding affinity for ERα, of E2) [2]: 14% | RBAα/RBAβ [2]: 1.8 | RBAα/RBAβ ([2]; listed as 1-methylestradiol): about 1.8 | IC50 ([2]; read-out: ERα IC50): 79.4 nM | decrease of binding affinity for ERα compared to E2 ([2]; relative to E2): approximately 90%

COc1cc2c(cc1OC)[C@H]1CC[C@]3(C)C(=O)CC[C@H]3[C@@H]1CC2 [2,3-diMeO-E1, Estrone 2,3-dimethyl ether]
IC50 ([1]; read-out: ERβ IC50): > 1000 nM | IC50 ([2]; read-out: ERα IC50): > 1000 nM

COc1cc2c(cc1OC)C1CCC3(C)C(O)CCC3C1CC2 (stereo not drawn) [2,3-diMeO-E2, 17β-Estradiol 2,3-dimethyl ether]
IC50 ([1]; read-out: ERβ IC50): > 1000 nM | IC50 ([2]; read-out: ERα IC50): > 1000 nM

CC12CCC3c4cc(Br)c(O)cc4CCC3C1CCC2O (centres unmarked) [2-Br-E2, 2-Bromoestradiol]
RBAβ (%) (relative binding affinity for ERβ, of E2) [1]: < 0.5% and 0.4% | IC50 ([1]; read-out: ERβ IC50): 2510 nM | RBAα % (relative binding affinity for ERα, of E2) [2]: 4% | RBAα/RBAβ [2]: 10 | RBAα/RBAβ ([2]; listed as 2-bromoestradiol): about 10 | IC50 ([2]; read-out: ERα IC50): 281 nM

CCOc1cc2c(cc1O)CCC1C2CCC2(C)C(O)CCC12 (centres unmarked) [2-Ethoxy-E2, 2-Ethoxyestradiol]
binding affinity for ERβ (in words) [1]: weak binding affinity | IC50 ([1]; read-out: ERβ IC50): > 1000 nM | binding affinity for ERα (in words) [2]: weak binding affinity | IC50 ([2]; read-out: ERα IC50): > 1000 nM

COc1cc2c(cc1O)CC[C@@H]1[C@@H]2CC[C@]2(C)C(=O)CC[C@@H]12 [2-MeO-E1, 2-Methoxyestrone]
IC50 [1, 3]: > 1000 nM | binding affinity for ERβ (in words) [1]: did not have appreciable binding affinity | IC50 [2, 4]: > 1000 nM | binding affinity for ERα (in words) [2]: did not have appreciable binding affinity | RBAα/RBAβ determined by extrapolating the curves [2]: about 1

COc1cc2c(cc1O)CC[C@@H]1[C@@H]2CC[C@]2(C)[C@@H](O)CC[C@@H]12 [2-MeO-E2, 2-Methoxyestradiol]
IC50 [1, 3]: 631 nM | RBAβ (%) (relative binding affinity for ERβ, of E2) [1]: 1% | IC50 [2, 4]: 501 nM | RBAα % (relative binding affinity for ERα, of E2) [2]: 2% | RBAα/RBAβ [2]: 2 | RBAα/RBAβ ([2]; listed as 2-methoxyestradiol): about 2

C[C@]12CC[C@@H]3c4cc(N)c(O)cc4CC[C@H]3[C@@H]1CCC2=O [2-NH2-E1, 2-Aminoestrone]
RBAβ (%) (relative binding affinity for ERβ, of E2) [1]: 0.4% | binding affinity for ERβ (in words) [1]: very weak binding affinities | IC50 ([1]; read-out: ERβ IC50): 2510 nM | RBAα % (relative binding affinity for ERα, of E2) [2]: 3% | binding affinity for ERα (in words) [2]: very weak binding affinities | RBAα/RBAβ [2]: 7.5 | RBAα/RBAβ ([2]; listed as 2-aminoestrone): about 7.5 | IC50 ([2]; read-out: ERα IC50): 398 nM

C[C@]12CC[C@@H]3c4cc([N+](=O)[O-])c(O)cc4CC[C@H]3[C@@H]1CCC2=O [2-NO2-E1, 2-Nitroestrone]
binding affinity for ERβ (in words) [1]: very weak binding affinities | IC50 ([1]; read-out: ERβ IC50): > 1000 nM | RBAα % (relative binding affinity for ERα, of E2) [2]: 1% | binding affinity for ERα (in words) [2]: very weak binding affinities | RBAα/RBAβ determined by extrapolating the curves [2]: about 3 | RBAα/RBAβ determined by extrapolating the curves ([2]; listed as 2-nitorestrone): ~3 | IC50 ([2]; read-out: ERα IC50): 1580 nM

COc1cc2c(cc1O)[C@H]1CC[C@]3(C)C(=O)CC[C@H]3[C@@H]1CC2 [2-OH-3-MeO-E1, 2-Hydroxyestrone 3-methyl ether]
binding affinity for ERβ (in words) [1]: did not have appreciable binding affinity | IC50 ([1]; read-out: ERβ IC50): > 1000 nM | binding affinity for ERα (in words) [2]: did not have appreciable binding affinity | IC50 ([2]; read-out: ERα IC50): > 1000 nM

COc1cc2c(cc1O)[C@H]1CC[C@]3(C)[C@@H](O)CC[C@H]3[C@@H]1CC2 [2-OH-3-MeO-E2, 2-Hydroxyestradiol 3-methyl ether]
binding affinity for ERβ (in words) [1]: substantially weaker binding affinity | IC50 ([1]; read-out: ERβ IC50): > 1000 nM | binding affinity for ERα (in words) [2]: substantially weaker binding affinity | IC50 ([2]; read-out: ERα IC50): > 1000 nM

CC12CCC3c4cc(O)c(O)cc4CCC3C1CCC2=O (centres unmarked) [2-OH-E1, 2-Hydroxyestrone]
RBAβ (%) (relative binding affinity for ERβ, of E2) [1]: 0.4% | IC50 ([1]; read-out: ERβ IC50): 2000 nM | preference of binding affinity for ERα over ERβ ([2]; ERα over ERβ): about ten-fold | RBAα % (relative binding affinity for ERα, of E2) [2]: 4% | RBAα/RBAβ [2]: 10 | RBAα/RBAβ ([2]; listed as 2-hydroxyestrone): about 10 | IC50 ([2]; read-out: ERα IC50): 316 nM

C[C@]12CC[C@@H]3c4cc(O)c(O)cc4CC[C@H]3[C@@H]1CC[C@@H]2O [2-OH-E2, 2-Hydroxyestradiol]
IC50 [1]: 25.1 nM | RBAβ (%) (relative binding affinity for ERβ, of E2) [1]: 35% | IC50 [2]: 50.1 nM | RBAα % (relative binding affinity for ERα, of E2) [2]: 22% | RBAα/RBAβ [2]: 0.6

CC(=O)OC1C[C@]2(C)[C@@H](O)CC[C@H]2[C@@H]2CCc3cc(O)ccc3[C@@H]12 (stereo partly drawn) [11-Acetate-E2, 17β-Estradiol 11-acetate]
IC50 [1, 3]: 19.9 nM

C[C@]12CC[C@@H]3c4ccc(O)cc4CC[C@H]3[C@@H]1C[C@@H](O)[C@@H]2O [16α-OH-E2 (E3), 16α-Hydroxyestradiol (Estriol), reference compound]
preference of binding affinity for ERβ over ERα ([1]; listed as E3): more than five-fold | IC50 ([1]; read-out: ERβ IC50): 25.1 nM

C[C@]12CC[C@@H]3c4ccc(O)cc4CC[C@H]3[C@@H]1C[C@@H](O)[C@H]2O [16α-OH-E2-17α, 16α-Hydroxyestradiol-17α (16,17-Epiestriol)]
IC50 ([1]; read-out: ERβ IC50): 11.2 nM | binding affinity for ERβ, times higher than E2-17α ([1]; relative to E2-17α): 16 times

C[C@]12CC[C@@H]3c4ccc(O)cc4CC[C@H]3[C@@H]1C[C@H](O)[C@H]2O [16β-OH-E2-17α, 16β-Hydroxyestradiol-17α (16,17-Epiestriol)]
preference of binding affinity for ERβ over ERα [1]: 18 fold | IC50 ([1]; read-out: ERβ IC50): 70.8 nM

C#CC1(O)CCC2C3CCc4cc(O)ccc4C3CCC21C (stereo not drawn) [17α-EE2, 17α-Ethynylestradiol, reference compound]
binding affinity for ERβ (in words) [1]: only about half of that of E2

C[C@]12CCc3c(ccc4cc(O)ccc34)[C@@H]1CC[C@@H]2O [17β-Dihydroequilenin]
IC50 [1, 3]: 8.9 nM

O=C(CC(=O)c1ccccc1)c1ccccc1 [DBM, Dibenzoylmethane, reference compound]
IC50 [1]: > 1000 nM | binding affinity for ERβ (in words) [1]: weak overall binding affinity

C[C@]12CC[C@@H]3c4ccc(OS(=O)(=O)O)cc4CC[C@H]3[C@@H]1CCC2=O [E1-3-sulfate, Estrone 3-sulfate]
binding affinity for ERβ (in words) [1]: basically devoid of appreciable binding affinity | binding affinity for ERβ (in words) ([1]; listed as estrone-3-sulfate): virtually no estrogen receptor binding affinity | IC50 ([1]; read-out: ERβ IC50): > 1000 nM

C[C@]12CC[C@@H]3c4ccc(O)cc4C[C@@H](CCCCCCOCc4ccccc4)[C@H]3[C@@H]1CC[C@@H]2O [E2-7α-(CH2)6OC6H5, 7α-(6-Benzyloxyhexanyl)-17β-estradiol]
IC50 [1, 3]: 63.1 nM
